{"source": "PubChem BioAssay AID1963431", "about": "(Molecular Pharmacology Branch, DTP, NCI, 2024)", "test_system": "Rh18 complex spheroid viability, percent test/control", "assay": "Anticancer human tumor Rh18 cell line growth inhibition [Asc];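 for all read-outs here: spheroids exposed to compound for 7 days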;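 for viability, T/C: 100% = DMSO vehicle control wells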", "conditions": "for IC50: curve of first compound; for viability, T/C: stronger effect = lower value", "description": "Multicellular complex tumor spheroid response to apoptosis pathway targeting inhibitors Alrizomadlin, Pelcitoclax, and Dasminapant in combination with a variety of drugs and investigational agents in selected tumor cell lines\nThe MDM2 inhibitor alrizomadlin, the Bcl-2/Bcl-xL inhibitor pelcitoclax, and the IAPs inhibitor dasminapant were evaluated both individually and in combination with standard of care and investigational anticancer small molecules within a complex spheroid model of solid tumors. . Complex spheroids include a stromal component modeled by human endothelial cells (HUVEC) and fibroblasts modeled by human mesenchymal stem cells (MSCs). The concentration ranges selected for each drug and investigational agent were based upon clinically achievable concentrations if the clinical Cmax of the agent was known.\nCompounds. The drugs and investigational agents: alrizomadlin (APG-115; NSC831270), pelcitoclax (APG-1252; NSC835773), dasminapant (APG-1387;NSC834197), TAK-243 (NSC785004), copanlisib (NSC809693), olaparib (NSC753686), talazoparib (NSC767125), cobimetinib (NSC 768068), eltanexor (KPT-8602, NSC 794443), abemaciclib (NSC 768073), sotorasib (NSC818433), adagrasib (NSC 831453), MRTX-1133 (NSC 836407), Iadademestat (ORY1001, NSC 806812), and RMC-4630 (NSC839698), were obtained from the NCI Developmental Therapeutics Program Chemical Repository. The FDA-approved anticancer drug set is available from the Developmental Therapeutics Program at https://dtp.cancer.gov/organization/dscb/obtaining/available plates.htm. […] The stock solutions were prepared in dimethyl sulfoxide (DMSO, Sigma-Aldrich, St. Louis, MO, cat. D2650) at 800-fold the tested concentration and stored at -70 degrees C prior to their use. All drugs and investigational agents were tested over a range starting from a high concentration at or near the clinical Cmax and decreasing in half-log increments. If the clinical Cmax for an agent had not been determined, the highest concentration tested was 10 microM.\nThe patient-derived cancer (PDC) cell lines include five colon adenocarcinomas: 186277-243-T-J2-PDC, 616215-338-R-J1-PDC, 439559-082-T-J2-PDC, 463943-066-T-J2-PDC, and 519858-162-T-J1-PDC; three pancreatic carcinomas: 323965-272-R-J2-PDC, 521955-158-R6-J3-PDC, and 521955-158-R2-J5-PDC; two uterine sarcomas: 327498-152-R-J2-PDC and 993429-296-R-J1-PDC; two rhabdomyosarcomas: 755483-174-R-J1-PDC and 772245-204-R-J1-PDC; two soft tissue sarcomas: 126254-015-R-J1-PDC and 494315-158-R-J1-PDC; two malignant fibrous histiocytomas: 317291-083-R-J1-PDC and 596521-263-R-J1-PDC; two breast carcinomas: 171881-019-R-J1-PDC and 885512-296-R-J2-PDC; and one ovarian carcinoma: 6556581-035-R-J-PDC were obtained from the NCI PDMR, (https://pdmr.cancer.gov). The established cell lines HSSY-2 synovial sarcoma (RRID:CVCL 8719), SYO-1 synovial sarcoma (RRID:CVCL_7146), MPNST malignant peripheral neural sheath tumor were obtained from the Sloan Kettering Institute. The following established cell lines were purchased from the American Type Culture Collection (ATCC, Manassas, VA), Sor the received from the NCI repository:, PANC-1 pancreatic carcinoma (CRL-1469, RRID:CVCL_0480), OVCAR-5 ovarian carcinoma (RRID:CVCL_1628), OVCAR-8 ovarian carcinoma (RRID:CVCL_1629), , MCF-7 breast carcinoma (CRL-12584, RRID:CVCL_0031), MDA-MB-231 breast carcinoma (CRL-12532, RRID:CVCL_0062), NCI-H1876 small cell lung carcinoma (CRL-5902, RRID:CVCL_1503), NCI-H510A small cell lung carcinoma (HTB-184, RRID:CVCL_1565), NCI-H1417 (CRL-5869, RRID:CVCL_1469), and NCI-H196 small cell lung carcinoma (CRL-5823, RRID:CVCL_1509). Dr. Peter Houghton (Greehey Children's Cancer Research Institute, University of Texas Health Science Center, San Antonio, TX) provided Rh-18 rhabdomyosarcoma (RRID:CVCL_1659). Pooled donor human umbilical vein endothelial cells (HUVEC, Lonza, cat. CC-2519) and human mesenchymal stem cells (hMSC, Lonza, cat. PT-2501) were purchased from Lonza (Walkersville, MD).\nCell Culture. […]", "data": [{"smiles": "C=CC(=O)N1CCN(c2nc(=O)n(-c3c(C)ccnc3C(C)C)c3nc(-c4c(O)cccc4F)c(F)cc23)C(C)C1", "note": "(stereo not given) + CNC(C)C(=O)NC1CN(S(=O)(=O)c2cccc(S(=O)(=O)N3CCC4CCC(C(=O)NC(c5ccccc5)c5ccccc5)N4C(=O)C(NC(=O)C(C)NC)C3)c2)CCC2CCC(C(=O)NC(c3ccccc3)c3ccccc3)N2C1=O", "values": [{"measurement": "IC50", "setting": "second compound 0.01 µM", "result": "> 10000", "unit": "nM"}, {"measurement": "IC50", "setting": "second compound 0.0316 µM", "result": 4450, "unit": "nM"}, {"measurement": "IC50", "setting": "second compound 0.1 µM", "result": 61, "unit": "nM"}, {"measurement": "IC50", "setting": "second compound 0.316 µM", "result": "< 31.6", "unit": "nM"}, {"measurement": "IC50", "setting": "second compound 1 µM", "result": "< 31.6", "unit": "nM"}, {"measurement": "viability, T/C", "setting": "second compound 0.01 µM, first compound 0.0316 µM", "result": 61.6, "unit": "%"}, {"measurement": "viability, T/C", "setting": "second compound 0.01 µM, first compound 0.1 µM", "result": 63.6, "unit": "%"}, {"measurement": "viability, T/C", "setting": "second compound 0.01 µM, first compound 0.316 µM", "result": 56, "unit": "%"}, {"measurement": "viability, T/C", "setting": "second compound 0.01 µM, first compound 1 µM", "result": 51.8, "unit": "%"}, {"measurement": "viability, T/C", "setting": "second compound 0.01 µM, first compound 3.16 µM", "result": 59.8, "unit": "%"}, {"measurement": "viability, T/C", "setting": "second compound 0.01 µM, first compound 10 µM", "result": 61.1, "unit": "%"}, {"measurement": "viability, T/C", "setting": "second compound 0.0316 µM, first compound 0.0316 µM", "result": 52.4, "unit": "%"}, {"measurement": "viability, T/C", "setting": "second compound 0.0316 µM, first compound 0.1 µM", "result": 54.8, "unit": "%"}, {"measurement": "viability, T/C", "setting": "second compound 0.0316 µM, first compound 0.316 µM", "result": 61.9, "unit": "%"}, {"measurement": "viability, T/C", "setting": "second compound 0.0316 µM, first compound 1 µM", "result": 46.2, "unit": "%"}, {"measurement": "viability, T/C", "setting": "second compound 0.0316 µM, first compound 3.16 µM", "result": 60.7, "unit": "%"}, {"measurement": "viability, T/C", "setting": "second compound 0.0316 µM, first compound 10 µM", "result": 37.8, "unit": "%"}, {"measurement": "viability, T/C", "setting": "second compound 0.1 µM, first compound 0.0316 µM", "result": 49.4, "unit": "%"}, {"measurement": "viability, T/C", "setting": "second compound 0.1 µM, first compound 0.1 µM", "result": 52, "unit": "%"}, {"measurement": "viability, T/C", "setting": "second compound 0.1 µM, first compound 0.316 µM", "result": 48.6, "unit": "%"}, {"measurement": "viability, T/C", "setting": "second compound 0.1 µM, first compound 1 µM", "result": 43.1, "unit": "%"}, {"measurement": "viability, T/C", "setting": "second compound 0.1 µM, first compound 3.16 µM", "result": 46.4, "unit": "%"}, {"measurement": "viability, T/C", "setting": "second compound 0.1 µM, first compound 10 µM", "result": 43.6, "unit": "%"}, {"measurement": "viability, T/C", "setting": "second compound 0.316 µM, first compound 0.0316 µM", "result": 43.1, "unit": "%"}, {"measurement": "viability, T/C", "setting": "second compound 0.316 µM, first compound 0.1 µM", "result": 41.3, "unit": "%"}, {"measurement": "viability, T/C", "setting": "second compound 0.316 µM, first compound 0.316 µM", "result": 41.2, "unit": "%"}, {"measurement": "viability, T/C", "setting": "second compound 0.316 µM, first compound 1 µM", "result": 43.9, "unit": "%"}, {"measurement": "viability, T/C", "setting": "second compound 0.316 µM, first compound 3.16 µM", "result": 52.5, "unit": "%"}, {"measurement": "viability, T/C", "setting": "second compound 0.316 µM, first compound 10 µM", "result": 45.4, "unit": "%"}, {"measurement": "viability, T/C", "setting": "second compound 1 µM, first compound 0.0316 µM", "result": 44.1, "unit": "%"}, {"measurement": "viability, T/C", "setting": "second compound 1 µM, first compound 0.1 µM", "result": 45, "unit": "%"}, {"measurement": "viability, T/C", "setting": "second compound 1 µM, first compound 0.316 µM", "result": 46.4, "unit": "%"}, {"measurement": "viability, T/C", "setting": "second compound 1 µM, first compound 1 µM", "result": 40, "unit": "%"}, {"measurement": "viability, T/C", "setting": "second compound 1 µM, first compound 3.16 µM", "result": 35.4, "unit": "%"}, {"measurement": "viability, T/C", "setting": "second compound 1 µM, first compound 10 µM", "result": 35.9, "unit": "%"}]}]}
